This note sets out measurements from article PMC4549042, “Targeting procaspase-3 with WF-208, a novel PAC-1 derivative, causes selective cancer cell apoptosis” (Journal of Cellular and Molecular Medicine, 2015).

One may read the IC50 as the midpoint of a concentration-inhibition curve. One may read the EC50 as the concentration at which the effect is half-maximal. High values mean weaker potency, low ones greater potency.

Structures are written as SMILES. Residues, ends and D or L forms follow the SMILES beside them. *: point of attachment. Cbz = O=C(OCc1ccccc1)*; CH2F = FC*

The subject of one data set is HL-60 cell line. The data set can be described thus: MTT cell viability assay, HL-60. The settings on record: Homo sapiens, 72 hrs. The class given is cell-based. On the procedure:
(§1) The cell viability effects of the tested compounds were determined by MTT assay. Cells (1 × 10^4 cells/100 μl/well) were seeded into 96-well culture plates. After overnight incubation, cells were treated with various concentrations of compounds for 72 hrs. Subsequently, 10 μl MTT solution (2.5 mg/ml in PBS) was added to each well, than the cells were incubated for an additional 3–4 hrs at 37°C. After centrifugation (200 × g, 10 min.), the medium with MTT was aspirated, followed by the addition of 100 μl DMSO. The optical density of each well was measured at 570 nm with a Biotek Synergy TM HT Reader.
For orientation: Tetrazolium assays rely on reduction of a dye to a coloured formazan, in cell work by metabolically active cells.

Data set [1] concerns HL-60 and U-937 cell lines. The data set can be described thus: Western blot of Bcl-2 family and IAP proteins in HL-60 and U-937. The class given is cell-based, human. Particulars: 5 μM MG132 co-treated with 10 μM WF-208, 24 hrs. The method, then:
Approximately 1 × 10^7 HL-60 cells were gathered after pre-treatment with PAC-1 and WF-208 as previously described. The tumour tissue protein was purified according to the reported methods. Western blotting was performed as previously described. All antibodies were purchased from Cell Signaling Technology. In brief, an equal amount of total protein extracts from cultured cells or tissues were fractionated by 10–15% SDS-PAGE and electrically transferred onto polyvinylidene difluoride (PVDF) membranes. Different primary antibodies and corresponding horseradish peroxidase-conjugated secondary antibodies were used to detect the proteins. The bound secondary antibodies on the PVDF membrane were reacted with ECL™ Western Blotting Reagents detection reagents (Thermo Fisher, Rockford, USA) and exposed to X-ray films. Results were normalized to the internal control β-actin.

Data set [2] has as its system mouse primary cortical cell. Nature of the data set: Cytotoxicity in mouse primary cortical neuron cells. It is filed as cell-based. The settings on record: neurotoxicity. The method, then: as §1
Another data set addresses T1, rh-procaspase-3 (Homo sapiens, UniProt P42574).
T1 construct: purchased R&D System (Minneapolis, USA)
T1 sequence (P42574 1-277): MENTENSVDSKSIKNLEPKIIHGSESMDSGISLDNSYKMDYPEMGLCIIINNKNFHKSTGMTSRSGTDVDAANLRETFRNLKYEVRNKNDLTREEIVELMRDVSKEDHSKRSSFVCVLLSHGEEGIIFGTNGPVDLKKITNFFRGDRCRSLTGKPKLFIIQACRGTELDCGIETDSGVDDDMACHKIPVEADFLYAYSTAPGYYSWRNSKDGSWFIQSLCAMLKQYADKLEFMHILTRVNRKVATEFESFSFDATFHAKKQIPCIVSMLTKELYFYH
The data set can be described thus: Caspase-3 activation assay (procaspase-3 activation in vitro). It is filed as biochemical. The settings on record: rh-procaspase-3, concentrations 0.08–100 μM. The method, then: Procaspase-3 protein was purchased from R&D System (Minneapolis, USA). Procaspase-3 protein was added into 384-well plates. Tested compounds (or DMSO as control) were then added to achieve a final concentration of procaspase-3 of 50 ng/ml. Each plate was incubated for 2 hrs at 37°C. Then caspase-3 peptide substrate (acetyl Asp-Glu-Val-Asp-[…] (Ac-DEVD-pNa), 200 μM) were added. The absorbance of each well was measured at 405 nm in kinetic mode for 10 min [13].

A further data set relates to PC-3 xenograft. Nature of the data set: Human prostatic carcinoma PC-3 xenograft mouse model. It is filed as in vivo. Particulars: 2.5 mg/kg i.v., 15 days. The method, then:
To determine the anti-tumour activity of WF-208 in vivo, viable human prostate cancer PC-3 cells (5 × 10^6/100 μl PBS per mouse) were subcutaneously (s.c.) injected into the right flank of 7- to 8-week old male SCID mice. When the average tumour volume reached 100 mm^3, mice were randomly divided into various treatment and control group (eight mice per group). Tumour size was measured once every 2 days with a calliper (calculated volume = shortest diameter^2 × longest diameter/2). Body weight, diet consumption and tumour size were recorded once every 2 days. After 2 weeks, mice were killed and tumours were excised and stored at −80°C until further analysis.
In general terms: Xenograft models place foreign cells or tissue in a host animal.

Data set [3] deals with HL-60 and U-937 cell lines. Nature of the data set: Caspase inhibitors on WF-208-induced early apoptosis (Annexin V/PI). It is filed as cell-based, human. Particulars: 50 μM inhibitor, 10 μM WF-208, 24 hrs. On the procedure: Compounds were incubated with HL-60 and U-937 cells for 24 hrs. The cells were harvested and double-stained with FITC-Annexin V Apoptosis Detection Kit (BD Biosciences, San Jase, USA). Cells that positively stained with Annexin V and negatively stained with PI were considered to be early apoptotic.

As to `C=CCc1cccc(/C=N/NC(=O)CN2CCN(Cc3nc(-c4ccc(COc5ccc(Cl)cc5)cc4)no3)CC2)c1O` [A1], in the data set with HL-60 cell line, the IC50 is 0.25 µM.

On to `C=CCc1cccc(/C=N/NC(=O)CN2CCN(Cc3nc(-c4ccc(COc5ccc(F)cc5)cc4)no3)CC2)c1O` [A2], for which the IC50 in the data set with HL-60 cell line worked out at 0.39 µM.

Turning to `C=CCc1cccc(/C=N/NC(=O)CN2CCN(Cc3nc(-c4ccc(COc5cccc(Cl)c5)cc4)no3)CC2)c1O` [A3], the half-maximal inhibitory concentration (IC50) in the data set with HL-60 cell line worked out at 0.4 µM.

As to `C=CCc1cccc(/C=N/NC(=O)CN2CCN(Cc3nc(-c4ccc(COc5ccccc5C(F)(F)F)cc4)no3)CC2)c1O` [A4], in the data set with HL-60 cell line, the concentration for half-maximal inhibition (IC50) is 0.35 µM.

For `O=C(CN1CCN(Cc2nc(-c3ccc(COc4ccc(Cl)cc4)cc3)no2)CC1)N/N=C/c1ccc(OCc2ccccc2)cc1O` [B1], the IC50 in the data set on HL-60 cell line stood at 1.26 µM.

As to `O=C(CN1CCN(Cc2nc(-c3ccc(COc4ccc(F)cc4)cc3)no2)CC1)N/N=C/c1ccc(OCc2ccc(Cl)cc2Cl)cc1O` [B2], in the data set with HL-60 cell line, the IC50 was found to be 1.02 µM.

For the compound `O=C(CN1CCN(Cc2nc(-c3ccc(COc4ccc(F)cc4)cc3)no2)CC1)N/N=C/c1ccc(OCc2cccc(C(F)(F)F)c2)cc1O` [B3], the IC50 in the data set with HL-60 cell line was determined as 0.98 µM.

Consider `CC(C)(C)c1ccc(COc2ccc(/C=N/NC(=O)CN3CCN(Cc4nc(-c5ccc(COc6ccc(Cl)cc6)cc5)no4)CC3)c(O)c2)cc1` [B4], for which the half-maximal inhibitory concentration (IC50) in the data set with HL-60 cell line is 0.67 µM.

With `O=C(CN1CCN(Cc2nc(-c3ccc(COc4ccc(Cl)cc4)cc3)no2)CC1)N/N=C/c1ccc(OCc2ccc(Cl)cc2Cl)cc1O` [B5], the IC50 in the data set on HL-60 cell line was 1.07 µM.

`CC(C)(C)c1ccc(COc2ccc(/C=N/NC(=O)CN3CCN(Cc4nc(-c5ccc(COc6ccc(F)cc6)cc5)no4)CC3)c(O)c2)cc1` [B6]: the IC50 in the data set on HL-60 cell line is 0.6 µM.

Turning to `O=C(CN1CCN(Cc2nc(-c3ccc(COc4ccc(F)c(F)c4)cc3)no2)CC1)N/N=C/c1ccc(OCc2ccccc2)cc1O` [B7], in the data set on HL-60 cell line, the half-maximal inhibitory concentration (IC50) was 0.34 µM.

Turning to `O=C(CN1CCN(Cc2nc(-c3ccc(COc4ccc(F)c(F)c4)cc3)no2)CC1)N/N=C/c1ccc(OCc2ccc(Cl)cc2)cc1O` [B8], the 50% inhibitory concentration (IC50) in the data set with HL-60 cell line was found to be 0.3 µM.

Turning to `O=C(CN1CCN(Cc2nc(-c3ccc(COc4ccc(F)c(F)c4)cc3)no2)CC1)N/N=C/c1ccc(OCc2ccc(Cl)cc2Cl)cc1O` [B9], the IC50 in the data set on HL-60 cell line is 0.41 µM.

On to `CC(C)(C)c1ccc(COc2ccc(/C=N/NC(=O)CN3CCN(Cc4nc(-c5ccc(COc6ccccc6C(F)(F)F)cc5)no4)CC3)c(O)c2)cc1` [B10], for which the half-inhibitory concentration (IC50) in the data set on HL-60 cell line was determined as 0.4 µM.

As for `O=C(CN1CCN(Cc2nc(-c3ccc(COc4ccccc4C(F)(F)F)cc3)no2)CC1)N/N=C/c1ccc(OCc2cccc(F)c2)cc1O` [B11], the half-inhibitory concentration (IC50) in the data set with HL-60 cell line came out at 1.93 µM.

For `O=C(CN1CCN(Cc2nc(-c3ccc(COc4ccc(Cl)cc4)cc3)no2)CC1)N/N=C/c1ccc(OCc2cccc(Cl)c2)cc1O` [B12], in the data set with HL-60 cell line, the 50% inhibitory concentration (IC50) is greater than 20 µM.

As to `O=C(CN1CCN(Cc2nc(-c3ccc(COc4ccccc4C(F)(F)F)cc3)no2)CC1)N/N=C/c1ccc(OCc2csc(Cc3ccc4c(c3)OCO4)n2)cc1O` [C1], the concentration for half-maximal inhibition (IC50) in the data set with HL-60 cell line amounted to 1.08 µM.

For the compound `CC(C)C[C@@H](C=O)NC(=O)[C@H](CC(C)C)NC(=O)[C@H](CC(C)C)NC(=O)OCc1ccccc1` [MG132, reference compound] (Cbz-Leu-Leu-Leu-aldehyde), the “effect on down-regulation of XIAP and survivin induced by WF-208” value in data set [1] is listed as “blocked the down-regulation”.

For the compound `C=CCc1cccc(/C=N/NC(=O)CN2CCN(Cc3ccccc3)CC2)c1O` [PAC-1], the IC50 is 50100 nM in data set [2] and 2.1 µM in the data set with HL-60 cell line. The compound further came in with an EC50 at rh-procaspase-3 of 6020 nM. For the same compound, the “influence on body weight” value in the data set with PC-3 xenograft is given as “minimal influence”. In addition, the “tumour volume compared with control group” value in the data set with PC-3 xenograft is “no significantly difference”.

Consider `COC(=O)CC[C@H](NC(=O)[C@H](CC(=O)OC)NC(=O)OCc1ccccc1)C(=O)N[C@H](C(=O)N[C@@H](CC(=O)OC)C(=O)CF)C(C)C` [Z-DEVD-FMK], for which, in data set [3], the “effect of inhibitor on WF-208-induced early apoptosis” value (“effect of inhibitor” for short) is reported as “abolish”.

Turning to `COC(=O)CC[C@H](NC(=O)[C@H](CC(C)C)NC(=O)OCc1ccccc1)C(=O)N[C@@H](Cc1cnc[nH]1)C(=O)N[C@@H](CC(=O)OC)C(=O)CF` [Z-LEHD-FMK] (Cbz-LE(OMe)HD(OMe)-CH2F), in data set [3], the “effect of inhibitor” value is “partly inhibit”.

Take `COC(=O)C[C@H](NC(=O)[C@H](C)NC(=O)[C@@H](NC(=O)OCc1ccccc1)C(C)C)C(=O)CF` [Z-VAD-FMK] (Cbz-Val-Ala-Asp(OMe)-CH2F): the “effect of inhibitor” value in data set [3] is “abolish”.
